Patent US20100130598A1, “METHODS FOR INDUCING PROGRAMMED CELL DEATH” (Novogen Research Pty Ltd., priority 2008, published 2010)

Legend:
pancreatic cancer cells = experiment: Simultaneous caspase activation, apoptosis and necrosis (Annexin-V-Cy5/sytox blue) by flow cytometry; assay type: cell-based, human; settings: Compound 10-treated, 10 μM, 48 hrs
Protocol: (§1) Cells. Human pancreatic cell lines HPAC, MIAPaCa-2 and PANC-1 were obtained from the ATCC. (Manassas, Va.). The cells were maintained in DMEM media with Gln and high glucose (Mediatech, Manassas, Va.) with 10% fetal bovine serum (FBS, HyClone, Logan, Utah) and pencillin/streptomycin.
Caspase Activity After 48 h treatment with 10 μM Compound 10, HPAC, MIAPaCa-2 and PANC-1 cells were harvested by trypsinization and resuspended in DMEM media with 10% FBS. The cells were incubated with caspase substrates for 1 h at 37° C., 5% CO2, then probed with Annexin-V-Cy5 and sytox blue. Caspase +ve cells were gated as shown in the histograms and these cells are indicated on the Annexin-V-Cy5/sytox blue spectra as blue cells. In situ caspase activity was assayed using fluorescent substrates. For Caspase 2, FITC-VDVAD-fmk (Biovision K182-100), for Caspase 3, FITC-DEVD-fmk (K183-100) and for Caspase 9, FITC-LEHD-fmk (K199-100) was used. These substrates bind irreversibly to their respective activated caspases, and caspase activation was quantitated by flow cytometry. After 1 hr incubation at 37° C. in 5% CO2, the cells were washed with DPBS containing 5% FBS and resuspended in Annexin-V binding buffer containing Annexin-V-Cy5 (Biovision K103-3) and sytox blue (Invitrogen), a dye that binds necrotic cells. Caspase activation, apoptosis and necrosis were measured simultaneously using a violet, blue and red laser in a BD LSRII flow cytometer.

PANC-1 cells = experiment: Apoptosis/necrosis by FACS (Annexin-V-FITC/PI), PANC-1; assay type: cell-based, human; settings: PANC-1, dose-escalating, 48 hr exposure
Protocol: as §1
FACS Analysis. Apoptosis was measured by FACS analysis using Annexin-V-FITC and propidium iodide (PI) (Biovision, Mountain View, Calif.) as probes (Ahn et al., 2003). Mitochondrial membrane potential was measured by FACS analysis using JC-1 (Biovision) as a probe (Ahn et al., 2003). Cell cycle was analyzed on ethanol-fixed, RNaseA-treated cells staining with PI. In each spectrum, 10,000 gated events were recorded and analyzed with a FACSCalibur (BD Biosciences. San Jose, Calif.). All experiments were done in triplicate, error bars represent one standard deviation. Caspase inhibitor I (zVAD-fmk) was obtained from Calbiochem.

MIAPaCa-2 cells = experiment: Western blot analysis of apoptosis regulatory proteins, p21 and p53, MIAPaCa-2; assay type: cell-based, human
Description: as §1
Antibodies. Antibodies utilised in this study specific to p53 and, p21 were obtained from (Calbiochem, EMD, San Diego, Calif.), Caspase 9, XIAP, COX IV, Bcl2 and Akt (Cell Signaling Technology, Danvers, Mass.), Caspase 2, Cytochrome c and Bid (BD Pharmingen, San Diego, Calif.). GAPDH (RDI, Concord, Mass.) or β-actin (Sigma, St. Louis, Mo.) was used as a housekeeping gene to standardize the protein loading on the gels and blots.
Western blot analysis. Cells were seeded on 100 mm tissue culture plates and grown overnight to ˜90% confluence. Cells were then treated with the drug combinations for indicated time points. After the final treatment step, the cells were lysed with 500 μL of a lysis buffer containing 1% Nonidet P-40, 0.1% SDS, 0.5% deoxycholate, 150 mM NaCl, 50 mM Tris-HCl pH7.5, 1 mM EDTA, 1 mM PMSF and protease inhibitors (Roche) on ice for 30 minutes. Cell lysates were harvested with a sterile cell scraper and centrifuged at 15,000×g for 15 minutes to remove cell debris. Protein was assayed by the BCA method (Pierce) and 50 μg aliquots were separated on 12%, T, 2.6%C SDS-PAGE gels. Proteins were electrophoretically transferred to PVDF membranes (Immobilon P, Millipore, Billerica, Mass.) by the wet transfer method. These membranes were probed with specific antibodies and with anti-GAPDH which was used as the housekeeping gene to standardize the protein loading. The blots were developed on X-ray films using HRP-conjugated secondary antibodies (Southern Biotech, Birmingham, Ala.) and a chemiluminescent substrate (ECL, Amersham, N.Y.).

[1] = test system: phospho-S6 kinase (p-S6K); experiment: Western blot of lysed xenograft tumors for p-S6k; assay type: in vivo, NCR nude mice; settings: tumors from treated animals vs vehicle control
Protocol: SDS-PAGE and Western blots. Cell lysates (20 μg protein) were denatured in sample buffer (2.5% SDS, 10% glycerol, 5% β-mercapto-ethanol, 0.15 M Tris (pH=6.8) and 0.01% bromophenol blue) and subjected to 12% SDS-PAGE as previously described (Kamsteeg et al, 2003). The following antibodies and concentrations were used: mouse anti-XIAP (BD, 1:1,000), rabbit anti-MAP LC3 (1:200), rabbit anti-actin (Sigma, 1:10,000), rabbit anti-phosphorylated Akt (Cell Signaling, 1:1,000), rabbit anti-Akt (Cell Signaling, 1:1000), rabbit anti-phosphorylated mTOR (Cell Signaling, 1:1000), rabbit anti-mTOR (Cell Signaling, 1:1000), rabbit anti-cytochrome c (Clontech Laboratories, Inc, Mountainview, Calif., 1:100), rabbit anti-Omi (R&D Systems, Minneapolis, Minn., 1:5000), rabbit anti-Bid (Cell Signaling, 1:1000), mouse anti-Bax (BD Pharmingen, 1:250), rabbit anti-VDAC (Sigma Aldrich, 1:2000), mouse anti-Bcl2 (BD Pharmingen, 1:500), rabbit anti-AIF (Sigma Aldrich, 1:1000), rabbit anti-EndoG (Sigma Aldrich, 1:1000), mouse anti-topoisomerase I (BD Pharmingen, 1:10,000). Proteins were visualized using enhanced chemiluminescence (Pierce, Rockford Ill.).
Mouse xenograft studies. […] Tumor size was determined by caliper measurements and anti-tumor activity was analyzed with respect to maximal tumor inhibition (treated/control, T/C) as described previously (Kamsteeg et al, 2003).

## COc1ccc(C2c3ccc(O)cc3OCC2c2ccc(O)cc2)cc1 (stereo not drawn) [Compound 10, 3-(4-hydroxyphenyl)-4-(4-methoxyphenyl)chroman-7-ol]
Pancreatic cancer cells
  caspase positive cells that bound both Annexin-V-Cy5 and sytox blue (later stages of apoptosis): Approximately 30%
  caspase positive cells that were Annexin-V positive and sytox blue negative (early stages of apoptosis): Approximately 60%
  caspase positive cells that were sytox blue positive and Annexin-V negative (necrosis): Less than 5%
PANC-1 cells
  apoptosis: induced apoptosis in a dose-dependent fashion
  necrosis: Very little necrosis
MIAPaCa-2 cells; MIAPaCa-2 (mutant p53), 10 μM
  expression of p53: unaffected
MIAPaCa-2 cells; MIAPaCa-2, 10 μM
  cleavage of Caspase 3: did not cause significant cleavage
  full-length Caspase 2 (48Kd) cleavage: cleaved
  levels of Bcl2: lowered
  p21: elevated
MIAPaCa-2 cells; MIAPaCa-2, 10 μM, early timepoint (4 hr)
  total Akt: reduced
MIAPaCa-2 cells; MIAPaCa-2, 10 μM, over time
  Bid cleavage: induced Bid cleavage over time
MIAPaCa-2 cells; MIAPaCa-2, 10 μM, time course 0-48 hrs
  cleaved caspase 9 (17kd): initial drop in cleaved caspase 9 (17kd) followed by an increase after 16 hr
MIAPaCa-2 cells; MIAPaCa-2, 10 μM, degradation more pronounced than in HPAC
  level of XIAP: reduced

## COc1ccc(C2c3ccc(O)c(C)c3OCC2c2ccc(O)cc2)cc1 (stereo not drawn) [Compound 1, 3-(4-hydroxyphenyl)-4-(4-methoxyphenyl)-8-methylchroman-7-ol]
[1]
  p-S6k in tumors: significant decrease
